We go through 20 compounds from patent US20180148418A1, “AMIDO-SUBSTITUTED CYCLOHEXANE DERIVATIVES” (Bayer Pharma Aktiengesellschaft, priority 2015, published 2018).

Broadly, the pIC50 is the IC50 on a negative log10 scale, so that one unit is a factor of ten. Read a low pIC50 as a large IC50.

One test addresses T1, TNKS1 (Homo sapiens, UniProt O95271).
T1 construct: purchased BPS Bioscience, San Diego, USA 80579 (TNKS1 Histone Ribosylation Assay Kit)
T1 sequence (O95271 1-1327): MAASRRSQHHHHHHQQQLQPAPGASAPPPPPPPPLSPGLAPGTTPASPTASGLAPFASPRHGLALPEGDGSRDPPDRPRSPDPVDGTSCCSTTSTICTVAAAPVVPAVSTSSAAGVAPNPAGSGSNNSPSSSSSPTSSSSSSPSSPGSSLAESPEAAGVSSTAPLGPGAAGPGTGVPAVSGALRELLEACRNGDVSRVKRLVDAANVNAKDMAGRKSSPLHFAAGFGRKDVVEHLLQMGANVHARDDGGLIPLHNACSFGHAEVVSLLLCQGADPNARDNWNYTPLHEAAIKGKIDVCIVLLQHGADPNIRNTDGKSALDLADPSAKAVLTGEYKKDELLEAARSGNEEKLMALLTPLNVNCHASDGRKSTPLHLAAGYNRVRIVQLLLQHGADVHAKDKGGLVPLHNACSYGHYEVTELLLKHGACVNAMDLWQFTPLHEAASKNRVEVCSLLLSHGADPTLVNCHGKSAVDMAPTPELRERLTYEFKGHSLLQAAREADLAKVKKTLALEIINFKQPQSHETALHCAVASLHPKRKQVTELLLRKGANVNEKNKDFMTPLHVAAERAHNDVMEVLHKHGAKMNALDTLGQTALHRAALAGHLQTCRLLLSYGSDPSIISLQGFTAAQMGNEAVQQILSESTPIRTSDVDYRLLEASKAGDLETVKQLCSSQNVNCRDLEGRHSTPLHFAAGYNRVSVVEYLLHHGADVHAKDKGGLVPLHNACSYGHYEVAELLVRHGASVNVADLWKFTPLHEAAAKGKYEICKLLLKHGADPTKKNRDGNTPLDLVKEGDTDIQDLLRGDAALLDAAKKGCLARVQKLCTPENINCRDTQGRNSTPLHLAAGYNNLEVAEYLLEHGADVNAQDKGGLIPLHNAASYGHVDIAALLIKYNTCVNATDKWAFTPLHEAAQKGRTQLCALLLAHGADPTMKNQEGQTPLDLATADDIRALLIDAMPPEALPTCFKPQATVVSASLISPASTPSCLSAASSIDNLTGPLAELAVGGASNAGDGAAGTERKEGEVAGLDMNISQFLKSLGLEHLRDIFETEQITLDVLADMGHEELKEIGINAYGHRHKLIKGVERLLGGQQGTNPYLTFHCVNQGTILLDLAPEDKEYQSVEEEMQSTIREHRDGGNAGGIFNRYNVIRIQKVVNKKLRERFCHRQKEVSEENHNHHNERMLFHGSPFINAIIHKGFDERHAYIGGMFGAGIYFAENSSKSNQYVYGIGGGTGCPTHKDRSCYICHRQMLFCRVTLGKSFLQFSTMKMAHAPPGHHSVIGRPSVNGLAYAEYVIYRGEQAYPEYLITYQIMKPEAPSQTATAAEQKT
The test can be described thus: TNKS1 Assay B (auto-parsylation, [3H]-NAD+ SPA). Type of test: biochemical. The following applies: 6 nM TNKS1, auto-parsylation, over night at room temperature.

Test [1] concerns wildtype Wnt signaling cascade. The test is described as follows: HEK293 TOP assay (Super TopFlash luciferase reporter, Wnt-3a stimulated). Type of test: cell-based. The settings on record: Homo sapiens, HEK293, 16 h, HEK293 TOP reporter cells, Wnt3a at EC50, 16 hours. An outline of the steps:
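Compound series (50 μM down to 15 nM, 3.16-fold) diluted from DMSO 50-fold into CAFTY buffer, pH 7.4, 2 mM Ca^2+, 0.01% BSA, applied to Wnt-3a-stimulated HEK293 TopFlash and FOP reporter lines in parallel. Cells seeded 10000/well 24 h before; luciferase signal measured.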

pIC50: −log10 of the molar value.

In the case of `O=C(N[C@H]1CC[C@@]2(CCN(c3ccccc3Cl)C2=O)CC1)c1cnn2cccnc12` [Example 256, N-[(trans)-2-(2-chlorophenyl)-1-oxo-2-azaspiro[4.5]dec-8-yl]pyrazolo[1,5-a]pyrimidine-3-carboxamide], the pIC50 on TNKS1 is 7.92; in test [1] it was 8.64.

Take `Cc1cc(C)n2ncc(C(=O)N[C@H]3CC[C@@]4(CCN(c5ccccc5Cl)C4=O)CC3)c2n1` [Example 257, N-[(trans)-2-(2-chlorophenyl)-1-oxo-2-azaspiro[4.5]dec-8-yl]-5,7-dimethylpyrazolo[1,5-a]pyrimidine-3-carboxamide]: the results for the pIC50 (against TNKS1; in test [1]) were 8.00 and 8.85, respectively.

As for `CCNC(=O)c1nc[nH]c1C(=O)N[C@H]1CC[C@@]2(CCN(c3ccccc3Cl)C2=O)CC1` [Example 258, N^5-[(trans)-2-(2-chlorophenyl)-1-oxo-2-azaspiro[4.5]dec-8-yl]-N^4-ethyl-1H-imidazole-4,5-dicarboxamide], the figures for the negative-log IC50 (pIC50) (against TNKS1; in test [1]) were 7.89 and 8.64, respectively.

On to `COCCNC(=O)c1nc[nH]c1C(=O)N[C@H]1CC[C@@]2(CCN(c3ccccc3Cl)C2=O)CC1` [Example 259, N^5-[(trans)-2-(2-chlorophenyl)-1-oxo-2-azaspiro[4.5]dec-8-yl]-N^4-(2-methoxyethyl)-1H-imidazole-4,5-dicarboxamide], for which the pIC50 on TNKS1 is 7.92; in test [1] it was 8.07.

Consider `CC1CCN(CCNC(=O)c2nc[nH]c2C(=O)N[C@H]2CC[C@@]3(CCN(c4ccccc4Cl)C3=O)CC2)CC1` [Example 260, N^5-[(trans)-2-(2-chlorophenyl)-1-oxo-2-azaspiro[4.5]dec-8-yl]-N^4-[2-(4-methylpiperidin-1-yl)ethyl]-1H-imidazole-4,5-dicarboxamide], for which the negative logarithm of the IC50 (pIC50) against TNKS1 is 8.13; in test [1], 8.55.

As to `CNC(=O)c1nc[nH]c1C(=O)N[C@H]1CC[C@@]2(CCN(c3ccccc3Cl)C2=O)CC1` [Example 264, N^5-[(trans)-2-(2-chlorophenyl)-1-oxo-2-azaspiro[4.5]dec-8-yl]-N^4-methyl-1H-imidazole-4,5-dicarboxamide], the negative-log IC50 (pIC50) was 7.70 against TNKS1 and 8.64 in test [1].

Take `Cc1cc(N2CC[C@]3(CC[C@@H](NC(=O)c4cnc5cccnn45)CC3)C2=O)c(Cl)cc1F` [Example 265, N-[(trans)-2-(2-chloro-4-fluoro-5-methylphenyl)-1-oxo-2-azaspiro[4.5]dec-8-yl]imidazo[1,2-b]pyridazine-3-carboxamide]: the negative logarithm of the IC50 (pIC50) against TNKS1 is 8.19; in test [1], 8.46.

As to `Cc1cc(C)n2ncc(C(=O)N[C@H]3CC[C@@]4(CCN(c5cc(C)c(F)cc5Cl)C4=O)CC3)c2n1` [Example 266, N-[(trans)-2-(2-chloro-4-fluoro-5-methylphenyl)-1-oxo-2-azaspiro[4.5]dec-8-yl]-5,7-dimethylpyrazolo[1,5-a]pyrimidine-3-carboxamide], the values for the pIC50 (at TNKS1; in test [1]) were 7.70 and 8.18, respectively.

In the case of `Cc1cc(N2CC[C@]3(CC[C@@H](NC(=O)c4cnn5cccnc45)CC3)C2=O)c(Cl)cc1F` [Example 267, N-[(trans)-2-(2-chloro-4-fluoro-5-methylphenyl)-1-oxo-2-azaspiro[4.5]dec-8-yl]pyrazolo[1,5-a]pyrimidine-3-carboxamide], the negative-log IC50 (pIC50) on TNKS1 is 8.00; in test [1] it was 8.49.

Regarding `O=C(N[C@H]1CC[C@@]2(CCN(c3cccc(Cl)c3)C2=O)CC1)c1cnn2cccnc12` [Example 268, N-[(trans)-2-(3-chlorophenyl)-1-oxo-2-azaspiro[4.5]dec-8-yl]pyrazolo[1,5-a]pyrimidine-3-carboxamide], the figures for the pIC50 (against TNKS1; in test [1]) were 6.27 and 7.12, respectively.

Take `O=C(N[C@H]1CC[C@@]2(CCN(c3cccc(Cl)c3)C2=O)CC1)c1cnc2cccnn12` [Example 269, N-[(trans)-2-(3-chlorophenyl)-1-oxo-2-azaspiro[4.5]dec-8-yl]imidazo[1,2-b]pyridazine-3-carboxamide]: the figures for the negative-log IC50 (pIC50) (on TNKS1; in test [1]) were 6.10 and 7.19, respectively.

As for `Cc1cc(C)n2ncc(C(=O)N[C@H]3CC[C@@]4(CCN(c5cccc(Cl)c5)C4=O)CC3)c2n1` [Example 270, N-[(trans)-2-(3-chlorophenyl)-1-oxo-2-azaspiro[4.5]dec-8-yl]-5,7-dimethylpyrazolo[1,5-a]pyrimidine-3-carboxamide], the results for the negative-log IC50 (pIC50) (against TNKS1; in test [1]) were 6.80 and 8.05, respectively.

Regarding `O=C(N[C@H]1CC[C@@]2(CCN(c3ccccc3Cl)C2=O)CC1)c1cnc2cccnn12` [Example 271, N-[(trans)-2-(2-chlorophenyl)-1-oxo-2-azaspiro[4.5]dec-8-yl]imidazo[1,2-b]pyridazine-3-carboxamide], the pIC50 at TNKS1 was 7.82; in test [1] it was 8.44.

Turning to `CNC(=O)c1nc[nH]c1C(=O)N[C@H]1CC[C@@]2(CCN(c3cccc(Cl)c3)C2=O)CC1` [Example 276, N^5-[(trans)-2-(3-chlorophenyl)-1-oxo-2-azaspiro[4.5]dec-8-yl]-N^4-methyl-1H-imidazole-4,5-dicarboxamide], the values for the pIC50 (at TNKS1; in test [1]) were 6.74 and 7.57, respectively.

With `CCNC(=O)c1nc[nH]c1C(=O)N[C@H]1CC[C@@]2(CCN(c3cccc(Cl)c3)C2=O)CC1` [Example 277, N^5-[(trans)-2-(3-chlorophenyl)-1-oxo-2-azaspiro[4.5]dec-8-yl]-N^4-ethyl-1H-imidazole-4,5-dicarboxamide], the pIC50 against TNKS1 was 6.59; in test [1], 7.40.

As for `CC(C)NC(=O)c1nc[nH]c1C(=O)N[C@H]1CC[C@@]2(CCN(c3cccc(Cl)c3)C2=O)CC1` [Example 278, N^5-[(trans)-2-(3-chlorophenyl)-1-oxo-2-azaspiro[4.5]dec-8-yl]-N^4-(propan-2-yl)-1H-imidazole-4,5-dicarboxamide], the values for the pIC50 (against TNKS1; in test [1]) were 6.35 and 7.05, respectively.

As to `O=C(NC1CC1)c1nc[nH]c1C(=O)N[C@H]1CC[C@@]2(CCN(c3cccc(Cl)c3)C2=O)CC1` [Example 279, N^5-[(trans)-2-(3-chlorophenyl)-1-oxo-2-azaspiro[4.5]dec-8-yl]-N^4-cyclopropyl-1H-imidazole-4,5-dicarboxamide], the values for the pIC50 (on TNKS1; in test [1]) were 6.54 and 7.19, respectively.

For `O=C(N[C@H]1CC[C@@]2(CCN(c3cccc(Cl)c3)C2=O)CC1)c1[nH]cnc1C(=O)N1CC(F)C1` [Example 280, N-[(trans)-2-(3-chlorophenyl)-1-oxo-2-azaspiro[4.5]dec-8-yl]-4-[(3-fluoroazetidin-1-yl)carbonyl]-1H-imidazole-5-carboxamide], the negative logarithm of the IC50 (pIC50) against TNKS1 is 6.66; in test [1], 7.64.

Regarding `O=C(NCC(F)(F)F)c1nc[nH]c1C(=O)N[C@H]1CC[C@@]2(CCN(c3cccc(Cl)c3)C2=O)CC1` [Example 281, N^5-[(trans)-2-(3-chlorophenyl)-1-oxo-2-azaspiro[4.5]dec-8-yl]-N^4-(2,2,2-trifluoroethyl)-1H-imidazole-4,5-dicarboxamide], the pIC50 against TNKS1 is 6.48; in test [1] it was 7.37.

Turning to `COCCNC(=O)c1nc[nH]c1C(=O)N[C@H]1CC[C@@]2(CCN(c3cccc(Cl)c3)C2=O)CC1` [Example 282, N^5-[(trans)-2-(3-chlorophenyl)-1-oxo-2-azaspiro[4.5]dec-8-yl]-N^4-(2-methoxyethyl)-1H-imidazole-4,5-dicarboxamide], the negative logarithm of the IC50 (pIC50) was 6.51 at TNKS1 and 7.39 in test [1].
